# ChEMBL document CHEMBL5131538 (J Med Chem, 2022)
# Assays:
# Rattus norvegicus [1] = assay: Antihypertensive activity against aldosterone induced uninephrectomized Sprague-Dawley rat assessed as inhibition of area under the curve changes in systolic blood pressure at 10 mg/kg, po qd administered for 4 weeks (reference value: 294.5 +/-48.5 mmHg.day); type: functional, organism-based
# Rattus norvegicus [2] = assay: Organ protective activity in aldosterone-induced uninephrectomized Sprague-Dawley rat model assessed as renal tubular regeneration in kidney by measuring pathological lesion score at 1 mg/kg/day by PAS and H and E staining based histological analysis (reference value: 1.7 +/- 0.5); type: functional
# Rattus norvegicus [3] = assay: Organ protective activity in aldosterone-induced uninephrectomized Sprague-Dawley rat model assessed as glomerular mesangial proliferation in kidney by measuring pathological lesion score at 10 mg/kg/day by PAS and H and E staining based histological analysis (reference value: 1.9 +/- 0.5); type: functional
# [4] = Volume of distribution at steady state in Sprague-Dawley rat at 1 mg/kg, iv; type: ADME, organism-based; conditions: in vivo, read-out: Vdss
# Rattus norvegicus [5] = assay: Organ protective activity in aldosterone-induced uninephrectomized Sprague-Dawley rat model assessed as renal tubular ectasia in kidney by measuring pathological lesion score at 10 mg/kg/day by PAS and H and E staining based histological analysis (reference value: 1.3 +/- 0.4); type: functional
# Rattus norvegicus [6] = assay: Potency index, ratio of eplerenone ED50 to compound ED50 for antagonist activity MR in po dosed Sprague-Dawley rat assessed as reversal of aldosterone induced decrease in urinary Na+/K+ ratio; type: functional
# CHO-K1 = assay: Antagonist activity at human mineralocorticoid receptor S810L mutant expressed in CHO-K1 cells assessed as inhibition of aldosterone-induced transcriptional activity incubated for 24 hrs in presence of 0.5 nM aldosterone by Steady-Glo reagent based reporter gene assay relative to control; type: cell-based; parameters: scale not given: the % may be the effect or the level left; conditions: filed as antagonist
# Rattus norvegicus [7] = assay: Organ protective activity in aldosterone-induced uninephrectomized Sprague-Dawley rat model assessed as glomerular mesangial proliferation in kidney by measuring pathological lesion score at 1 mg/kg/day by PAS and H and E staining based histological analysis (reference value: 1.9 +/- 0.5); type: functional
# Rattus norvegicus [8] = assay: (§1) Organ protective activity in aldosterone-induced uninephrectomized Sprague-Dawley rat model assessed as urinary cast in kidney by measuring pathological lesion score at 10 mg/kg/day by PAS and H and E staining based histological analysis (reference value: 1.4 +/- 0.4); type: functional
# [9] = Half life in Sprague-Dawley rat at 3 mg/kg, po; type: ADME, organism-based; conditions: in vivo
# Androgen receptor = target: T1, Androgen receptor (Homo sapiens, UniProt P10275)
# T1 sequence (P10275 whole entry): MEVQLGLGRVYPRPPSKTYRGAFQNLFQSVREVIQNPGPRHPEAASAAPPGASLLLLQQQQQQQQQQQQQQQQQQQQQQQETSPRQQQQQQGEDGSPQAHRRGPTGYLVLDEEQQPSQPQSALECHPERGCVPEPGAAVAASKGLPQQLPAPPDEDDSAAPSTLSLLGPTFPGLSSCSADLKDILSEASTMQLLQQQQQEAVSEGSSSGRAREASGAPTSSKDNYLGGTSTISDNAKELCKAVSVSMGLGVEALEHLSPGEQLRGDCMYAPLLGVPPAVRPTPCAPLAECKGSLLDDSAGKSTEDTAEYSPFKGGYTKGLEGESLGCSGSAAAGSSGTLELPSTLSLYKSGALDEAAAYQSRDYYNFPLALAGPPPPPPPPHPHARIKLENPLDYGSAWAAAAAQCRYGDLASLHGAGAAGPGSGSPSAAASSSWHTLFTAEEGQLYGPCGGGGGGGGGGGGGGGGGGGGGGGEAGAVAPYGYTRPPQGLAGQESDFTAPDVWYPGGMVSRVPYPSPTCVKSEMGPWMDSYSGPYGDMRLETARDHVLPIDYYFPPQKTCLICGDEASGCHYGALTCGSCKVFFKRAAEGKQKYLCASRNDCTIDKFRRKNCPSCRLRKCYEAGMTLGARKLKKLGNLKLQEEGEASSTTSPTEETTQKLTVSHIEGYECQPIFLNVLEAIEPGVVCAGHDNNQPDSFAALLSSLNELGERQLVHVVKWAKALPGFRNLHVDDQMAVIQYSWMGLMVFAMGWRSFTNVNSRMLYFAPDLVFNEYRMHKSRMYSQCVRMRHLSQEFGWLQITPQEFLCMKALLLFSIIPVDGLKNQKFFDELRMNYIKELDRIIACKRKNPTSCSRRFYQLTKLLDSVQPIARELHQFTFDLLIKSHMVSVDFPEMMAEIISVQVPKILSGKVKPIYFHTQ
# Description: Displacement of [3H]-methyltrienolene from human androgen receptor incubated overnight by liquid scintillation counting analysis
# [10] = Half life in Sprague-Dawley rat at 1 mg/kg, iv; type: ADME, organism-based; conditions: in vivo
# Glucocorticoid receptor = target: T2, Glucocorticoid receptor (Rattus norvegicus, UniProt P06536); assay: Displacement of [3H]-dexamethasone from rat glucocorticoid receptor incubated overnight by liquid scintillation counting analysis
# T2 sequence (P06536 whole entry): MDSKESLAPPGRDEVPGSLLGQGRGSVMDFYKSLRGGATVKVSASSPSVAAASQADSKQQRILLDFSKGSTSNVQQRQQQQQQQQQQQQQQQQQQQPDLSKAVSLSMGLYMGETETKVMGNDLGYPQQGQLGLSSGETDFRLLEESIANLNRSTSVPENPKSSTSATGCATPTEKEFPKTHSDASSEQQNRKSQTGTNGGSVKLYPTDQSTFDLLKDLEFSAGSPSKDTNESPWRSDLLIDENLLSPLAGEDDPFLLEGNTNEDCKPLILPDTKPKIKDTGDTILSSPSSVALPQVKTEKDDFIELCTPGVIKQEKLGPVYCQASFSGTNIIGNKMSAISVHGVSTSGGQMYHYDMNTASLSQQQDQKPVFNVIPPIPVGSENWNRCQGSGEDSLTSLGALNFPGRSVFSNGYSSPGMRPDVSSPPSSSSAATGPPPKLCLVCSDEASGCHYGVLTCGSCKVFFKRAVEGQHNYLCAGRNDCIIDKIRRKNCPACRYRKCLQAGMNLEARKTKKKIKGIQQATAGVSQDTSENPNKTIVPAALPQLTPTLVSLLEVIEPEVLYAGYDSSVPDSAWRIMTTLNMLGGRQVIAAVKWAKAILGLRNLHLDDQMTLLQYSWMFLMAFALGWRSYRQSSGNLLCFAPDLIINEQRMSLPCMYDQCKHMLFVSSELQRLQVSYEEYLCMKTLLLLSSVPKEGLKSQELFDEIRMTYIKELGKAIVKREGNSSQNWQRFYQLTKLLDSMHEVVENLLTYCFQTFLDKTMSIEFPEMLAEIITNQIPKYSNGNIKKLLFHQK
# [11] = Oral bioavailability in Sprague-Dawley rat at 3 mg/kg; type: ADME, organism-based; conditions: in vivo
# Rattus norvegicus [12] = assay: as §1, with “myocardial necrosis and interstitial cellular infiltration” for “urinary cast”, “heart” for “kidney”, “sirius red” for “PAS”, “1.7” for “1.4”, “0.3)” for “0.4)”; type: functional
# Rattus norvegicus [13] = assay: Organ protective activity in aldosterone-induced uninephrectomized Sprague-Dawley rat model assessed as renal tubular regeneration in kidney by measuring pathological lesion score at 10 mg/kg/day by PAS and H and E staining based histological analysis (reference value: 1.7 +/- 0.5); type: functional
# Rattus norvegicus [14] = assay: as §1, with “degeneration of arteries and perivascular fibrosis” for “urinary cast”, “heart” for “kidney”, “1” for “10”, “sirius red” for “PAS”, “1.6” for “1.4”; type: functional
smiles,measurement,setting,value
CC1(C)Oc2cc(NS(C)(=O)=O)ccc2N(c2ccc(F)cc2)C1=O [MT-3995],AUC,Rattus norvegicus [1],249 mmHg.day
same,Activity,Rattus norvegicus [2],1.3
same,Activity,Rattus norvegicus [3],0
same,Vd,[4],1.08 L/kg
same,Activity,Rattus norvegicus [5],0
same,fold change (FC),Rattus norvegicus [6],10
same,Activity,CHO-K1,98.2%
same,Activity,Rattus norvegicus [7],1.3
same,Activity,Rattus norvegicus [8],0
same,half-life,[9],6.78 h
same,IC50,Androgen receptor,> 100 µM
same,half-life,[10],8.59 h
same,Ki,Glucocorticoid receptor,84.2 µM
same,bioavailability,[11],81.8%
same,Activity,Rattus norvegicus [12],0.1
same,Activity,Rattus norvegicus [13],0
same,Activity,Rattus norvegicus [14],1.1
